pIC50: −log10 of the molar value.
Biological target: T1, BRD9 (Homo sapiens, UniProt Q9H8M2)
T1 construct: 134-239 was cloned, expressed, and purified to homogeneity; Flag; made in house
T1 sequence (Q9H8M2 134-239 limits assumed): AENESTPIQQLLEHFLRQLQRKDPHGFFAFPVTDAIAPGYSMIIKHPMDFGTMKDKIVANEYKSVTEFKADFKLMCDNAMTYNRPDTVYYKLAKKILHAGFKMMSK
Assay: BRD9 AlphaLisa Binding Assay
Procedure: IC50 Measurements for Inhibitors Using BRD9 AlphaLisa Binding Assay His/Flag epitope tagged BRD9134-239 was cloned, expressed, and purified to homogeneity. […] After 20 minutes incubation at room temperature AlphaLisa Streptavidin Acceptor Beads (Perkin-A[…]) and AlphaLisa Nickel donor beads (Perkin AS 10 ID) were added to a final concentration of 15 ug/mL each.

Structure (SMILES) | pIC50
CC(C)CCN1CCC(N(C)C(=O)c2cn(C)c(=O)c3[nH]ccc23)CC1 [Example 217] | 5.33
CCCCn1cc(C(=O)NCC2CCN(C)CC2)c2cc[nH]c2c1=O [Example 248] | 5.48
Cn1cc(C(=O)NCc2ccccc2)c2cc[nH]c2c1=O [Example 257] | 6.74
C/C=C/Cn1cc(C(=O)NCc2ccccc2)c2cc[nH]c2c1=O [Example 260] | 6.74
C[C@H](NC(=O)c1cn(C)c(=O)c2[nH]ccc12)c1ccccc1 [Example 264] | 6.36

Now from value to compound:

pIC50 | Structure (SMILES)
6.22 | CCCCn1cc(C(=O)NCc2ccccc2)c2cc[nH]c2c1=O [Example 259]
6.32 | Cn1cc(C(=O)NCc2ccc(F)cc2)c2cc[nH]c2c1=O [Example 263]

Biological target: T2, BRD4(BD1) (Homo sapiens, UniProt O60885)
T2 construct: 42-168 was cloned, expressed, and purified to; His; made in house
Assay: BRD4 AlphaLisa Binding Assay
Excerpt: IC50 Measurements for Inhibitors Using BRD4 AlphaLisa Binding Assay

Structure (SMILES) | pIC50
Cn1cc(C(=O)NCCN2CCOCC2)c2cc[nH]c2c1=O [Example 8, 6-methyl-N-(2-morpholinoethyl)-7-oxo-1H-pyrrolo[2,3-c]pyridine-4-carboxamide] | 5.31
Cn1cc(C(=O)NCCCN2CCOCC2)c2cc[nH]c2c1=O [Example 31, 6-methyl-N-(3-morpholinopropyl)-7-oxo-1H-pyrrolo[2,3-c]pyridine-4-carboxamide] | 4.77
Cn1cc(C(=O)N2CCC(c3ccccn3)CC2)c2cc[nH]c2c1=O [Example 55, 6-methyl-4-[4-(2-pyridyl)piperidine-1-carbonyl]-1H-pyrrolo[2,3-c]pyridin-7-one] | 5.02
COC(=O)[C@@H](NC(=O)c1cn(C)c(=O)c2[nH]ccc12)C1CCCCC1 [Example 93] | 5.54
COC[C@@H](NC(=O)c1cn(C)c(=O)c2[nH]ccc12)c1ccccc1 [Example 95] | 4.96
CC(NC(=O)c1cn(C)c(=O)c2[nH]ccc12)c1ccc(Cl)cc1 (centres unmarked) [Example 126] | 5.49
Cc1ccccc1CCNC(=O)c1cn(C)c(=O)c2[nH]ccc12 [Example 127] | 5.92
CC(c1ccccc1)N(C)C(=O)c1cn(C)c(=O)c2[nH]ccc12 (centres unmarked) [Example 128] | 4.80
Cn1cc(C(=O)NCC2CCCCN2C(=O)OC(C)(C)C)c2cc[nH]c2c1=O (centres unmarked) [Example 132] | 4.89
CC(C)c1cccc(N2CCC(N(C)C(=O)c3cn(C)c(=O)c4[nH]ccc34)CC2)c1 [Example 179, N-[1-(3-isopropylphenyl)-4-piperidyl]-N,6-dimethyl-7-oxo-1H-pyrrolo[2,3-c]pyridine-4-carboxamide] | 5.68
CN(C(=O)c1cn(C)c(=O)c2[nH]ccc12)C1CCN(Cc2ccccc2C#N)CC1 [Example 215] | 5.42
COc1cccc(CN2CCC(N(C)C(=O)c3cn(C)c(=O)c4[nH]ccc34)CC2)c1 [Example 222] | 4.80
Cn1cc(C(=O)NCCc2ccccc2)c2cc[nH]c2c1=O [Example 258] | 6.10
Cn1cc(C(=O)NC2CCCCc3ccccc32)c2cc[nH]c2c1=O (centres unmarked) [Example 265, 6-methyl-7-oxo-N-(6,7,8,9-tetrahydro-5Hbenzo[7]annulen-5-yl)-6,7-dihydro-1H-pyrrolo[2,3-c]pyridine-4-carboxamide] | 5.28

Next, values leading:

pIC50 | Structure (SMILES)
5.01 | CN1CCN(CCNC(=O)c2cn(C)c(=O)c3[nH]ccc23)CC1 [Example 32, 6-methyl-N-[2-(4-methylpiperazin-1-yl)ethyl]-7-oxo-1H-pyrrolo[2,3-c]pyridine-4-carboxamide]
5.19 | Cn1cc(C(=O)N2CCC(Cc3cccnc3)CC2)c2cc[nH]c2c1=O [Example 46, 6-methyl-4-[4-(3-pyridylmethyl)piperidine-1-carbonyl]-1H-pyrrolo[2,3-c]pyridin-7-one]
4.80 | Cn1cc(C(=O)N2CCC(n3cnc4ccccc43)CC2)c2cc[nH]c2c1=O [Example 50, 4-[4-(benzimidazol-1-yl)piperidine-1-carbonyl]-6-methyl-1H-pyrrolo[2,3-c]pyridin-7-one]
5.39 | Cn1cc(C(=O)N2CCC(C(F)(F)F)CC2)c2cc[nH]c2c1=O [Example 57, 6-methyl-4-[4-(trifluoromethyl)piperidine-1-carbonyl]-1H-pyrrolo[2,3-c]pyridin-7-one]
5.10 | Cn1cc(C(=O)N2CCC(C#N)CC2)c2cc[nH]c2c1=O [Example 64, 1-(6-methyl-7-oxo-1H-pyrrolo[2,3-c]pyridine-4-carbonyl)piperidine-4-carbonitrile]
5.08 | Cn1cc(C(=O)NCc2ccc(S(C)(=O)=O)cc2)c2cc[nH]c2c1=O [Example 92]
5.51 | C[C@@H](NC(=O)c1cn(C)c(=O)c2[nH]ccc12)C1CCCCC1 [Example 94]
5.30 | Cn1cc(C(=O)N[C@H](C(=O)O)c2ccccc2)c2cc[nH]c2c1=O [Example 96]
4.77 | Cn1cc(C(=O)NCC2CCOCC2)c2cc[nH]c2c1=O [Example 101]
5.37 | CC(NC(=O)c1cn(C)c(=O)c2[nH]ccc12)c1ccccc1F (centres unmarked) [Example 116]
5.40 | CCOC(C)CNC(=O)c1cn(C)c(=O)c2[nH]ccc12 (centres unmarked) [Example 117]
5.92 | COc1ccccc1C(C)NC(=O)c1cn(C)c(=O)c2[nH]ccc12 (centres unmarked) [Example 119]
4.96 | CC(C)C(NC(=O)c1cn(C)c(=O)c2[nH]ccc12)c1ccccc1 (centres unmarked) [Example 123]
5.96 | CN(CC1CCN(Cc2ccccc2Cl)CC1)C(=O)c1cn(C)c(=O)c2[nH]ccc12 [Example 198]
5.42 | C[C@@H](NC(=O)c1cn(C)c(=O)c2[nH]ccc12)c1ccccc1 [Example 256, (R)-6-methyl-7-oxo-N-(1-phenylethyl)-6,7-dihydro-1Hpyrrolo[2,3-c]pyridine-4-carboxamide]
5.57 | COc1ccc(CNC(=O)c2cn(C)c(=O)c3[nH]ccc23)cc1 [Example 261]
5.48 | Cn1cc(C(=O)NCc2cccs2)c2cc[nH]c2c1=O [Example 262]

From patent publication US10258603B2 (priority 2014, dated 2019)
